Key:
[1] = target: T1, GTPase KRas (Homo sapiens, UniProt P01116, G12C); assay: Inhibition of BODIPY loaded KRAS G12C mutant (unknown origin) assessed as inhibition of GDP-GTP exchange rate preincubated for 2 hrs and measured after 2 hrs in presence of SOS1-GppNHp mixture by BODIPY fluorescence based PHERAstar plate reader analysis
[2] = target: T1, GTPase KRas; assay: Inhibition of KRAS G12C mutant in human MIA PaCa-2 cells assessed as reduction in phosphorylated ERK level incubation for 2 to 4 hrs by HTRF assay; type: cell-based

T1 sequence (P01116 whole entry G12C): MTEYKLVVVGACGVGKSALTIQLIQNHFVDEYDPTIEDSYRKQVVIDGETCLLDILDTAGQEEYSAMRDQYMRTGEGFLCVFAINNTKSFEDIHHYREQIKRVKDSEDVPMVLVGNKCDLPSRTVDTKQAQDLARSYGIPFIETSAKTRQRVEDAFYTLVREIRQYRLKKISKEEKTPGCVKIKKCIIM

Row | Structure (SMILES) | IC50 [1] [µM] | IC50 [2] [µM]
1 | C=CC(=O)N1CC(F)(Cn2c(=O)c(=O)n(-c3c(C)ccnc3C(C)C)c3nc(-c4ccccc4F)c(Cl)cc32)C1 | ≤ 0.1 | ≤ 0.1
2 | C=CC(=O)N1CC(F)(Cn2c(=O)c(=O)n(-c3c(C)ccnc3C(C)C)c3nc(-c4cccc(Cl)c4Cl)c(Cl)cc32)C1 | ≤ 0.1 | ≤ 0.1
3 | C=CC(=O)N1CC(F)(Cn2c(=O)c(=O)n(-c3c(C)ccnc3C(C)C)c3nc(-c4c(F)ccc(F)c4O)c(Cl)cc32)C1 | ≤ 0.1 | ≤ 0.1
4 | C=CC(=O)N1CC(F)(Cn2c(=O)c(=O)n(-c3c(C)ccnc3C(C)C)c3nc(-c4c(N)cccc4F)c(Cl)cc32)C1 | ≤ 0.1 | ≤ 0.1

The remaining lines, values ahead:

Row | IC50 [1] [µM] | IC50 [2] [µM] | Structure (SMILES)
5 | ≤ 0.1 | ≤ 0.1 | C=CC(=O)N1CC(F)(Cn2c(=O)c(=O)n(-c3c(C(C)C)cccc3C(C)C)c3nc(-c4cc(O)cc5ccccc45)c(Cl)cc32)C1
6 | ≤ 0.1 | ≤ 0.1 | C=CC(=O)N1CC(F)(Cn2c(=O)c(=O)n(-c3c(C)ccnc3C(C)C)c3nc(-c4c(Cl)ccc5c4OCO5)c(Cl)cc32)C1
